Assay results reported in US20060025446A1, “Propargyl nitroxides and indanyl nitroxides and their use for the treatment of neurologic diseases and disorders” (priority 2004, published 2006).
Where a name gives a salt, the structure may show the parent alone.

Tests used:
[1] = system: Experimental Allergic Encephalomyelitis (EAE) using PLP 139-151; assay: PLP induced EAE in mice; format: in vivo, Female SJL mice; conditions: 50 mg/kg/day orally by gavage, day 1 to day 20; for Incid.: sick animals/animals in group
Procedure: Induction of Experimental Allergic Encephalomyelitis (EAE) Using PLP
Female SJL mice (12 weeks old) were inoculated with the encephalitogienic peptide of proteolipid protein (PLP 139-151) synthesized to a purity of 70% by Sigma (Israel). 150 μg of the peptide were emulsified in complete Freund's adjuvant (CFA) (Difco Laboratories), supplemented with killed mycobacteria (5 mg/ml) and pertussis toxin (200 ng) (Sigma), given subcutaneously at day of inoculation only.
Mice were kept at specific pathogen free (SPF) conditions and given water and food ad libitum. Mice were daily observed for clinical signs from day 10 until day 18-21 post inoculation.
Treatment with Test Compounds
Compounds were dissolved in 2-hydroxypropyl beta cyclodextrin (40% water solution). Treatment started at day 1 post inoculation. The compounds B10 and A10 (50 mg/kg) and vehicle were given orally by gavage every day until day 20 post inoculation.
Interpretation of Results: Calculation of the Incidence of Disease
The number of sick animals in each group was summed. The percentage of sick animals in each group was calculated.
Calculation of the Mean Maximal Score (MMS)
The maximal scores of each of the 15 mice in the group were summed.
The mean maximal score of the group were calculated as follows: Σ maximal score of each mouse/number of mice in the group. Calculation of the Mean Disease Duration (MDD)
The mean duration of disease expressed in days was calculated as follows: Σ duration of disease of each mouse/number of mice in the group. Calculation of the Group Mean Score (GMS)
The scores of each of the 15 mice in the group was summed and the mean score per day was calculated.
The group mean score was calculated as follows: Σ total score of each mouse per day/number of mice in the group.

[2] = system: Human Red Blood Cells; assay: Hypochlorite (HOCl) hemolysis of human red blood cells model; format: cell-based; conditions: antioxidant activity; compounds dissolved at 5 mg/ml, aliquots tested
Procedure: Hypochlorite (HOCl) Hemolysis of Human Red Blood Cells Model
The reaction is based on the ability of oxygen radicals to lyse red blood cells. Antioxidant compounds such as ascorbic acid and 4-hydroxy-TEMPO (TEMPOL) prevent membrane damage in a dose dependent manner. All compounds were dissolved at a concentration of 5 mg/ml and aliquots were tested for their ability to prevent lysis.

[3] = Chemiluminescence model (without cells): Luminol, SIN-1, selenite, BSA; format: biochemical; conditions: antioxidant activity
From the text: Chemiluminescence Model (Without Cells)
Luminescence was generated in vials containing the following compounds: Luminol, SIN-1 (a generator of NO radicals), selenite, BSA. This reaction is inhibited by scavengers of peroxynitirites as well as scavengers of NO and other oxygen free radicals.

[4] = system: Neutrophils; assay: PMA-induced oxidative burst in neutrophils model (DCFH, FACS); format: cell-based; conditions: PMA 10 ng/ml for 30 minutes
Procedure: PMA-Induced Oxidative Burst in Neutrophils Model
The cells were activated with PMA (10 ng/ml) for 30 minutes and incubated with 2,7-dichlorodihydrofluorescin diacetate (DCFH), which is converted to a fluorescent compound in the presence of oxygen radicals and peroxynitrites. The fluorescent cells were detected in a cell sorter (FACS).

[5] = system: NGF-Differentiated PC12 Cells; assay: MPP+ Parkinson neurotoxicity/neuroprotection model, LDH release; format: cell-based; conditions: MPP+ 1000 μM, 48-52 hr
Procedure: The Parkinson Neurotoxicity Model of 1-methyl-4-phenyl piridinium (MPP+ Iodine Salt, 1000 μM for 48-52 hr), Using 7-10 Days NGF-Differentiated PC12 Cells.
The slow developing cell death in this model is believed to be a result of inhibition of mitochondrial complex I and generation of oxygen and nitrogen radicals. Therefore the antioxidant tempol (4-HYDROXY-TEMPO) was used as a positive standard in the screening experiments with the compounds. The following detailed protocol was employed for testing.
MPP+—Neurotoxicity/Neuroprotection Protocol:
• 1. PC12 cells (2×10^5 cells) were seeded on NUNC 6-well dishes coated with 200 μg/ml collagen (rat tail type I) and grown in DMEM medium containing 7% Fetal Calf Serum, 7% Horse Serum and […] Penicilin and 100 ug/ml Streptomycin. • 2. Differentiation of the cells for 7-10 days was achieved by treatment with mouse β-NGF (β-nerve growth factor) (50 ng/ml) added freshly every 2-3 days to the culture medium. • 3. Cultures were progressively evaluated for the differentiation response expressed by elongation of neurites, increased percentage of responsive cells, and other morphological parameters. • 4. At the day of the experiment, the medium of the differentiated cultures was replaced to fresh medium containing NGF (50 ng/ml). • 5. […] LDH (lactic dehydrogenase) release to the medium (neurotoxicity) was measured after 48-52 hr after the addition of MPP+, using an ELISA reader. […]
Neurotoxicity is defined as the percentage of LDH released to the medium at the end of the experiment calculated according to the following formula: {LDH(MPP)−LDH(control)}/{LDH(total)−LDH(control)}×100=Neurotoxicity (% of total cell death) • LDH(MPP): LDH release at the end of MPP+ insult • LDH(control): LDH release at the end of experiment from untreated cultures • LDH(total): LDH released from the cultures upon freezing at −80° C. and thawing at room temperature (release of total/maximal LDH present in the culture) […]

[6] = system: EAE using MOG (Myelin Oligodendrocyte Glycoprotein); assay: MOG induced EAE in mice; format: in vivo, Female C57B1/6 mice
[7] = dose 50 mg/kg/day, gavage x2/day, day 1 to 30

SMILES: C#CCN[C@@H]1CCc2ccc(OC(=O)NC3CC(C)(C)N([O])C(C)(C)C3)cc21.Cl [Compound A10, (2,2,6,6-Tetramethyl-1-piperidinyloxy-4-yl)-carbamic acid 3(R)-prop-2-ynylamino-indan-5-yl ester HCl]
- MDD (mean disease duration) [1]: 5.8 ± 0.86 days
- MDO (mean day of onset) [1]: 11 ± 0.2
- MMS (mean maximal score) [1]: 5.0 ± 0.8
- Mean score [1]: 3.4 ± 0.3
- Incid. [1]: 5/5

SMILES: O=C1O[C@H]([C@@H](O)CO)C(O)=C1O [Ascorbic acid]
- HOCl (% lysis) [2]: 100%
- Chemiluminescence (% inhib.) [3]: 100%
- PMA (% cells activated) [4]: 100%

SMILES: C#CCNC1CC(C)(C)N([O])C(C)(C)C1.Cl [Compound B10, 2,2,6,6-Tetramethyl-4-(prop-2-ynylamino)-piperidine nitroxide HCl]
- HOCl (% lysis) [2]: 45%
- (# dead) [1]: 3
- MDD (mean disease duration) [1]: 5.2 ± 0.97 days
- MDO (mean day of onset) [1]: 13.6 ± 0.81
- MMS (mean maximal score) [1]: 5.0 ± 0.77
- Mean score [1]: 3.57 ± 0.29
- Incid. [1]: 5/5
- Chemiluminescence (% inhib.) [3]: 42%
- Neuroprotection MPP+ ([5]; at 1 & 10 μM): Active at 1 & 10

SMILES: C#CCN[C@@H]1CCc2ccc(NC(=O)OC3CC(C)(C)N([O])C(C)(C)C3)cc21 [Compound A11, (3-Prop-2-ynylamino-indan-5-yl) carbamic acid 2,2,6,6-tetramethyl-1-piperidinyloxy-4-yl ester HCl]
- effect on EAE ([6]; discussion of results): significant beneficial effect
- onset of clinical signs of EAE ([6]; discussion of results): long delay
- MDD (mean disease duration) [6, 7]: 8.0 ± 2.02 days
- MDO (mean day of onset) [6, 7]: 17.14 ± 0.80
- MMS (mean maximal score) [6, 7]: 2.93 ± 0.76
- Mean score [6, 7]: 0.65 ± 0.09
- Incid. ([6]; sick animals/animals in group, dose 50 mg/kg/day, gavage x2/day, day 1 to 30): 7/13
- Neuroprotection MPP+ ([5]; at 10 μM): 43% at 10

SMILES: CC1(C)CC(O)CC(C)(C)N1[O] [Tempol, 4-hydroxy-2,2,6,6-tetramethylpiperidine-1-nitroxide]
- HOCl (% lysis) [2]: 25%
- Chemiluminescence (% inhib.) [3]: 57%
- PMA (% cells activated) [4]: 70%
- Neuroprotection MPP+ ([5]; at 0.5-1.0 mmol): Active at 0.5-1.0
